Measured values published in article PMC6780165, “Verruculosins A–B, New Oligophenalenone Dimers from the Soft Coral-Derived Fungus Talaromyces verruculosus” (Marine Drugs, 2019).

Legend:
CDC25B = biological target: T1, CDC25B (Homo sapiens, UniProt P30305); experiment: CDC25B enzymatic activity assay (OMFP dephosphorylation); assay type: biochemical; settings: OMFP substrate 10 μM, 100 nM CDC25B, 30 °C, pH 8.0; read-out: Anti-CDC25B IC50 (µM) ± SD
T1 sequence (P30305 1-580): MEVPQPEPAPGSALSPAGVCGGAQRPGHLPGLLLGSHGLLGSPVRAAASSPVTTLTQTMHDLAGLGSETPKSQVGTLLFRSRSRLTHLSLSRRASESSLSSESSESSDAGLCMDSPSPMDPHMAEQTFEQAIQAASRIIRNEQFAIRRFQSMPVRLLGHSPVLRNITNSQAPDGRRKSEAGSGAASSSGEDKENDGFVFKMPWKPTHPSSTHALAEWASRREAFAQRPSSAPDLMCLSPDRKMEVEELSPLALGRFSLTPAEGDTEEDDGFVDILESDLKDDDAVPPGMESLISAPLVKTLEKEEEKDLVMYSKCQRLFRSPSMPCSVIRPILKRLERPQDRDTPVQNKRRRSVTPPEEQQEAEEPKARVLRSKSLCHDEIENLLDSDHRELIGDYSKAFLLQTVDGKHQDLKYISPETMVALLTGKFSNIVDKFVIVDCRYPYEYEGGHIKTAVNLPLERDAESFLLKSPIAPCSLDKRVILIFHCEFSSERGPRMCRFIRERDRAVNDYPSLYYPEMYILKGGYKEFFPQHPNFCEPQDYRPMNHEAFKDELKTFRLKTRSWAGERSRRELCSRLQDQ
Method: The enzymatic activity of the CDC25B was determined at 30 °C by monitoring the dephosphorylation of 3-O-methylfluorescein phosphate (OMFP), which was used as a substrate for the CDC25B and can be monitored at a 535 nm emission wavelength and 485 nm excitation wavelength in the EnVisionmultilabel plate reader. The assay was measured in a 100 μL mixture system containing 50 mM Tris-HCl, pH 8.0, 50 mM NaCl, 10 μM OMFP, 100 nM CDC25B, 1 mM dithiothreitol (DTT), 1 mM ethylene diamine tetraacetic acid (EDTA), 1% glycerin, and 2 mg/L compound. The initial rate of the dephosphorylation was determined using the early linear region of the enzymatic reaction kinetic curve. DMSO and Na3VO4 were used as negative and positive controls, respectively.

EGFR tyrosine kinase = EGFR tyrosine kinase (Homo sapiens, UniProt P00533); experiment: EGFR tyrosine kinase inhibitory activity (ELISA); assay type: biochemical; settings: poly(Glu, Tyr)4:1 substrate, 10 μM ATP, 60 min at 37 °C, read-out: Anti-EGFR IC50 (µM) ± SD
Chain of EGFR tyrosine kinase (P00533 25-1210): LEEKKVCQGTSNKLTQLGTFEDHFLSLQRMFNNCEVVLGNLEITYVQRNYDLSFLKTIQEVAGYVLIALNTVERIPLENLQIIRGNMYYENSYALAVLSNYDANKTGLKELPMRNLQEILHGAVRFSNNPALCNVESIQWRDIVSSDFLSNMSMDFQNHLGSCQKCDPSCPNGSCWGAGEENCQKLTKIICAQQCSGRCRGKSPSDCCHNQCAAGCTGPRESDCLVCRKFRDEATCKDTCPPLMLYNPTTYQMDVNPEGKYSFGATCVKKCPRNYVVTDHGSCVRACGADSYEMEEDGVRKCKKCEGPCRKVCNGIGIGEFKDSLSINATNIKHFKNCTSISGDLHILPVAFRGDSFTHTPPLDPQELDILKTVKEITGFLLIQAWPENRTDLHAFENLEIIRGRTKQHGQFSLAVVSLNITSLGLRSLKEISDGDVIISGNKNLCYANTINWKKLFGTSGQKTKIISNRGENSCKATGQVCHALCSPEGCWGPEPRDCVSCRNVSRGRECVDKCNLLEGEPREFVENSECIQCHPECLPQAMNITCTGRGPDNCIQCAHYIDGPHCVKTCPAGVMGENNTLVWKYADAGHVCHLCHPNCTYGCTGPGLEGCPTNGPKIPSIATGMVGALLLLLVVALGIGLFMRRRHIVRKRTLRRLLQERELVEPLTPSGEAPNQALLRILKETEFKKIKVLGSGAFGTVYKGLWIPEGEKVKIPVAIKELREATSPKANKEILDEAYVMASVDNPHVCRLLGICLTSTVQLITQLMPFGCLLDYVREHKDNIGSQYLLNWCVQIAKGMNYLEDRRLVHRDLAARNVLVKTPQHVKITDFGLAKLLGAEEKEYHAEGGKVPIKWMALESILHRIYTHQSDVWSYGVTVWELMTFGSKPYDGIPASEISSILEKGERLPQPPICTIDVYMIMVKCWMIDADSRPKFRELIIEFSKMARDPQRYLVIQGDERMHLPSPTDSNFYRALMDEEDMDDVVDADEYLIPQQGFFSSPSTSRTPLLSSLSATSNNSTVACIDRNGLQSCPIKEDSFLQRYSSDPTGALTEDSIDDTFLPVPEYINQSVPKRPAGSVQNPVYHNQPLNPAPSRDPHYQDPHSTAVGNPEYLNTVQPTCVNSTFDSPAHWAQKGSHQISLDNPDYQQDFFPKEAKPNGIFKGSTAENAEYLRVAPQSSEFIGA
Method: The EGFR tyrosine kinase inhibitory activity was tested using enzyme-linked immunosorbent assay (ELISA). The compounds were dissolved in dimethyl sulfoxide (DMSO) buffer solution and were then distributed to a 96-well plate pre-coated with poly(Glu, Tyr)4:1 as a substrate. Each well was treated with 50 μL of 10 μM ATP solution diluted with reaction buffer and the reaction was started by the addition of EGFR tyrosine kinase. After 60 min of incubation at 37 °C, the plate was washed three times with phosphate buffered saline containing 0.1% Tween 20 (PBST). Next, antiphosphotyrosine (PY99) antibody 100 μL was added. After incubation for 30 min at 37 °C, the plate was washed three times and goat anti-mouse IgG horseradish peroxidase was added. The plate was reincubated at 37 °C for 30 min and washed as before. Lastly, 100 μL of color development solution was added and the plate was incubated at room temperature until color emerged. The reaction was terminated by adding 50 μL of 2 M H2SO4, and the absorbance was measured on the Molecular Devices SpectraMax 190 microplatereader at 490 nm [20]. The known EGFR inhibitor, afatibib, was utilized as a positive control, and 0.1% (v/v) DMSO was used as a negative control.

[1] = test system: murine leukemia L-1210 cells; parameters: method as in ref 5, ref 6; settings: cited from earlier work
[2] = test system: mitochondrial respiration; parameters: method as in PMID 7122988; settings: cited from earlier work
[3] = test system: human breast cancer (MCF-7) cells; parameters: method as in ref 8, ref 9; settings: cited from earlier work
[4] = test system: human non-small cell lung carcinoma (NCL-H460) cells; parameters: method as in ref 8, ref 9; settings: cited from earlier work
[5] = test system: human cervical cancer (Hela) cells; parameters: method as in ref 8, ref 9; settings: cited from earlier work

IC50 (CDC25B)	IC50 (EGFR tyrosine kinase)	Molecule	cytotoxicity against MCF-7 cells (in words) [3]	cytotoxicity against NCL-H460 cells (in words) [4]	activity against Hela cells (in words) [5]	also measured
0.38 ± 0.03 µM	0.92 ± 0.25 µM	COC12c3c(C)cc(O)c4c3C3=C(OC(C)(O)CC3OC4=O)C1C13COC(=O)c4c(O)cc(C)c(c41)C(=O)C2C3OC(C)=O (centres unmarked) [Compound 1, verruculosin A]				
	1.22 ± 0.53 µM	COC(=O)CC1OC(=O)c2c(O)cc(C)c3c2C1=C(O)C1C24COC(=O)c5c(O)cc(C)c(c52)C(=O)C(C4OC(C)=O)C31OC (centres unmarked) [Compound 2, verruculosin B]				
0.4 ± 0.02 µM	4.41 ± 2.32 µM	COC1OC(=O)c2c(O)cc(C)c3c4c(c(O)c1c23)C12COC(=O)c3c(O)cc(C)c(c31)C(=O)C4C2OC(C)=O (centres unmarked) [Compound 3, bacillisporin F]				
0.26 ± 0.06 µM	0.24 ± 0.17 µM	CC(=O)OC1C2C(=O)c3c(C)cc(O)c4c3C1(COC4=O)c1c(O)c3c4c(c(O)cc(C)c4c12)C(=O)OC3=O (centres unmarked) [Compound 5, xenoclauxin]				
0.52 ± 0.02 µM		[Na+].[Na+].[Na+].[O]=[V]([O-])([O-])[O-] [Na3VO4, reference compound]				

Second part, the molecule before the results:

Molecule	IC50 (CDC25B)	IC50 (EGFR tyrosine kinase)	cytotoxicity against MCF-7 cells (in words) [3]	cytotoxicity against NCL-H460 cells (in words) [4]	activity against Hela cells (in words) [5]	also measured
COC12c3c(C)cc(O)c4c(=O)occ(c34)C(=O)C1C13COC(=O)c4c(O)cc(C)c(c41)C(=O)C2C3OC(C)=O (centres unmarked) [Compound 4, duclauxin]	0.75 ± 0.18 µM	0.95 ± 0.64 µM				activity against murine leukemia L-1210 cells (in words) [1]: highly active; inhibitory effects on mitochondrial respiration (in words) [2]: strong inhibitory effects
Bascillosporin A			high cytotoxicity	high cytotoxicity		
Bascillosporin B [Bascillosporins B]			moderately active	moderately active	moderately active	
Bascillosporin C			moderately active	moderately active	moderately active	
Bascillosporin H			moderately active	moderately active	moderately active	
